Results taken from ChEMBL document CHEMBL5725801, “Fused heterocyclic compounds as CaM kinase inhibitors” (2018).

Experiment: CaMKII Cell-Based Activity: CaMKII activity in neonatal rat ventricular myocytes (NRVM) was measured by monitoring the phosphorylation level of phospholamban using high-content imaging. NRVMs were plated in a clear bottom 384-well plate in medium supplemented with 10% fetal bovine serum (FBS) and incubated at 37° C., 5% CO2 overnight. The medium was changed to a serum-free medium and compounds were dosed to the cells. The cells were incubated at 37° C., 5% CO2 for 4 hours and were then treated with 100 nM ATX-II (Alomone Labs) to activate CaMKII. 10 minutes after the addition of ATX-II, the cells were fixed with 4% formaldehyde followed by permeabilization with 0.1% triton X100. The fixed cells were stained with an anti-phospho-phospholamban primary antibody (Santa Cruz Biotechnology) and an Alexa488-labeled anti-rabbit IgG secondary antibody (Life Technologies Corporation) as well as Hoechst 33342 (Life Technologies Corporation). The cells were imaged using an ArrayScan VTI (Cellomics) and analyzed for cells containing a positive fluorescent signal at 485 nm, reported as % responder. The % responders were plotted against the compound concentration to determine the compounds EC50.

EC50 [nM]	SMILES
46.6	CCN(CC)[C@@H](C)CNC(=O)c1cc(-c2cnn3ccc(-c4cccs4)nc23)nc(N2CCC(O)CC2)c1
17.7	CCN(CC)[C@@H](C)CNC(=O)c1cc(-c2cnn3ccc(-c4cccs4)nc23)nc(N2CC(O)C2)c1
40.8	CCN(CC)[C@@H](C)CNC(=O)c1cc(-c2cnn3ccc(-c4cccs4)nc23)nc(N(C)C)c1
13.7	CCN(CC)[C@@H](C)CNC(=O)c1cc(-c2cnn3ccc(-c4cccs4)nc23)nc(N2CC(OC)C2)c1
13.8	CCN[C@@H](C)CNC(=O)c1cc(Cl)nc(-c2cnn3ccc(-c4ccccc4)nc23)c1
288	COc1cc(C(=O)N2CCCC[C@H]2CN)cc(-c2cnn3ccc(-c4ccccc4)nc23)n1
604	CCN[C@@H](C)CNC(=O)c1cc(-c2cnn3ccc(-c4cccs4)nc23)nc(N2CC(O)C2)c1
48.8	CCC(=O)Nc1cc(C(=O)NC[C@H](C)N(CC)CC)cc(-c2cnn3ccc(-c4cccs4)nc23)n1
115	CCN(CC)[C@@H](C)CNC(=O)c1cc(NS(=O)(=O)C(C)C)nc(-c2cnn3ccc(-c4cccs4)nc23)c1
31.9	CCN(CC)[C@@H](C)CNC(=O)c1cc(NCCN(C)C)nc(-c2cnn3ccc(-c4ccccc4)nc23)c1
316	COc1cc(C(=O)N2CCCC[C@@H]2CN)cc(-c2cnn3ccc(-c4ccccc4)nc23)n1
232	CCN(CC)[C@@H](C)CNC(=O)c1cc(NCC2(N3CCCC3)COC2)nc(-c2cnn3ccc(-c4cccs4)nc23)c1
143	CCOC(=O)Nc1cc(C(=O)NC[C@H](C)N(CC)CC)cc(-c2cnn3ccc(-c4cccs4)nc23)n1
50.5	CCN(CC)[C@@H](C)CNC(=O)c1cc(-c2cnn3ccc(-c4cccs4)nc23)nc(N2CC(S(=O)(=O)NC)C2)c1
90.5	CCN[C@@H](C)CNC(=O)c1cc(-c2cnn3ccc(-c4cccs4)nc23)nc(N2CC(OC)C2)c1
211	Cc1cc(C(=O)N2CCC[C@@H]2CN)cc(-c2cnn3ccc(-c4ccccc4)nc23)n1
65.5	CCN(CC)[C@@H](C)CNC(=O)c1cc(-c2cnn3ccc(-c4cccs4)nc23)nc(N2CCC(O)C(F)(F)C2)c1 (stereo not given in full)
27	CCN(CC)[C@@H](C)CNC(=O)c1cc(-c2cnn3ccc(-c4cccs4)nc23)nc(N2CC(NS(=O)(=O)Cc3ccon3)C2)c1
13.9	CCN(CC)[C@@H](C)CNC(=O)c1cc(-c2cnn3ccc(-c4ccns4)nc23)nc(N2CC(OC)C2)c1
46	CCN(CC)[C@@H](C)CNC(=O)c1cc(-c2cnn3ccc(-c4cccs4)nc23)nc(N2CCC(C)(O)CC2)c1
418	CN(C)c1cc(C(=O)N2CCCC[C@H]2CN)cc(-c2cnn3ccc(-c4ccccc4)nc23)n1
51	CCN(CC)[C@@H](C)CNC(=O)c1cc(-c2cnn3ccc(-c4cccs4)nc23)nc(N2CC(S(=O)(=O)NC3CC3)C2)c1
25	CCN(CC)[C@@H](C)CNC(=O)c1cc(N)nc(-c2cnn3ccc(-c4ccccc4)nc23)c1
14.9	CCN(CC)[C@@H](C)CNC(=O)c1cc(-c2cnn3ccc(-c4ccsc4)nc23)nc(N2CC(OC)C2)c1
66.4	Cc1cnc(-c2cnn3ccc(-c4ccccc4)nc23)cc1C(=O)N1CCCC[C@@H]1[C@@H](C)N
53.2	CN(C)c1cc(C(=O)N2CCCC[C@@H]2CN)cc(-c2cnn3ccc(-c4ccccc4)nc23)n1

EC50 [nM]	SMILES
29.2	NC[C@H]1CCCCN1C(=O)c1cc(-c2cnn3ccc(-c4ccccc4)nc23)nc(C2CC2)c1
15.3	CCN[C@@H](C)CNC(=O)c1cc(-c2cnn3ccc(-c4ccccc4)nc23)nc(C2CC2)c1
33.3	Cc1cnc(-c2cnn3ccc(-c4ccccc4)nc23)cc1C(=O)N1CCCC[C@@H]1CN
16.9	CCN(CC)[C@@H](C)CNC(=O)c1cc(-c2cnn3ccc(-c4ccccc4)nc23)nc(N2CC(OC)C2)c1
25.7	CCN(CC)[C@@H](C)CNC(=O)c1cc(-c2cnn3ccc(-c4cccs4)nc23)nc(N2CC(NS(=O)(=O)CC)C2)c1
95.9	CCN(CC)[C@@H](C)CNC(=O)c1cc(NS(=O)(=O)C2CC2)nc(-c2cnn3ccc(-c4cccs4)nc23)c1
170	CCN[C@@H](C)CNC(=O)c1cc(CC)nc(-c2cnn3ccc(-c4ccccc4)nc23)c1
9.6	CCN(CC)[C@@H](C)CNC(=O)c1cc(-c2cnn3ccc(-c4cccs4)nc23)nc(N(C)S(C)(=O)=O)c1
213	NC[C@@H]1CCCCN1C(=O)c1cc(Cl)nc(-c2cnn3ccc(-c4ccccc4)nc23)c1
243	NC[C@@H]1CCCCN1C(=O)c1cc(Cl)nc(-c2cnn3ccc(-c4cccs4)nc23)c1
40.2	CCN(CC)[C@@H](C)CNC(=O)c1cc(-c2cnn3ccc(-c4cccs4)nc23)nc(N2CCC2)c1
2480	C[C@H](N)CNC(=O)c1cc(-c2cnn3ccc(-c4cccs4)nc23)nc(N2CC(O)C2)c1
23.7	NC[C@H]1CCCCN1C(=O)c1cc(Cl)nc(-c2cnn3ccc(-c4cccs4)nc23)c1
23.3	NC[C@H]1CCCCN1C(=O)c1cc(-c2cnn3ccc(-c4ccccc4)nc23)ncc1N
31.5	CCN(CC)[C@@H](C)CNC(=O)c1cc(-c2cnn3ccc(-c4cccs4)nc23)nc(N2CC(NS(=O)(=O)C(C)C)C2)c1
20.5	CCN(CC)[C@@H](C)CNC(=O)c1cc(-c2cnn3ccc(-c4cccs4)nc23)nc(N2CC(F)C2)c1
27.4	CCN(CC)[C@@H](C)CNC(=O)c1cc(NC(=O)C2CC2)nc(-c2cnn3ccc(-c4cccs4)nc23)c1
65.2	NC[C@H]1CCCCN1C(=O)c1cc(-c2cnn3ccc(-c4ccccc4)nc23)nc(C(F)(F)F)c1
93.8	CCN(CC)[C@@H](C)CNC(=O)c1cc(-c2cnn3ccc(-c4cccs4)nc23)nc(N2CC(C)(C)C2)c1
46.6	CC(C)(C)c1cc(C(=O)N2CCCC[C@@H]2CN)cc(-c2cnn3ccc(-c4ccccc4)nc23)n1
145	CCN[C@@H](C)CNC(=O)c1cc(-c2cnn3ccc(-c4ccccc4)nc23)nc(N2CC(OC)C2)c1
39.8	CCN(CC)[C@@H](C)CNC(=O)c1cc(NC(=O)OC(C)C)nc(-c2cnn3ccc(-c4cccs4)nc23)c1
841	CN(C)c1cc(C(=O)N2CC[C@H](N)C2)cc(-c2cnn3ccc(-c4ccccc4)nc23)n1
126	CCN(CC)[C@@H](C)CNC(=O)c1cc(NS(=O)(=O)CC)nc(-c2cnn3ccc(-c4cccs4)nc23)c1
19.5	CCN[C@@H](C)CNC(=O)c1cc(-c2cnn3ccc(-c4ccccc4)nc23)nc(C(C)C)c1
145	COc1cc(C(=O)N2CC[C@H](N)C2)cc(-c2cnn3ccc(-c4cccs4)nc23)n1

EC50 [nM]	SMILES
113	CCN[C@@H](C)CNC(=O)c1cc(N)nc(-c2cnn3ccc(-c4ccccc4)nc23)c1
31.3	CCN(CC)[C@@H](C)CNC(=O)c1cc(-c2cnn3ccc(-c4cccs4)nc23)nc(N2CC(S(C)(=O)=O)C2)c1
69.6	COC1CN(c2cc(C(=O)NCC34CCCN3CCC4)cc(-c3cnn4ccc(-c5ccccc5)nc34)n2)C1
52.8	Cc1cc(C(=O)N2CCCC[C@@H]2CN)cc(-c2cnn3ccc(-c4ccccc4)nc23)n1
9.07	CCN(CC)[C@@H](C)CNC(=O)c1cc(-c2cnn3ccc(-c4cccs4)nc23)nc(N2CC(C#N)C2)c1
35.2	NC[C@H]1CCCCN1C(=O)c1cc(-c2cnn3ccc(-c4ccccc4)nc23)ncc1Cl
139	COC1CN(c2cc(C(=O)NC[C@H](C)N)cc(-c3cnn4ccc(-c5cccs5)nc34)n2)C1
59	CCN(CC)[C@@H](C)CNC(=O)c1cc(NCCN(C)C)nc(-c2cnn3ccc(-c4cccs4)nc23)c1
284	CCN[C@@H](C)CNC(=O)c1cc(C)nc(-c2cnn3ccc(-c4ccccc4)nc23)c1
102	CCN(CC)[C@@H](C)CNC(=O)c1cc(-c2cnn3ccc(-c4cccs4)nc23)nc(C(F)(F)F)c1
28.1	CCN(CC)[C@@H](C)CNC(=O)c1cc(-c2cnn3ccc(-c4cccs4)nc23)nc(N2CC(NS(=O)(=O)C3CC3)C2)c1
54.4	CCN(CC)[C@@H](C)CNC(=O)c1cc(-c2cnn3ccc(-c4cccs4)nc23)nc(N2CC(C(F)(F)F)C2)c1
21.8	CNc1cnc(-c2cnn3ccc(-c4ccccc4)nc23)cc1C(=O)N1CCCC[C@@H]1CN
150	CCN(CC)[C@@H](C)CNC(=O)c1cc(-c2cnn3ccc(-c4cccs4)nc23)nc(N2CCNC2=O)c1
107	CCN(CC)[C@@H](C)CNC(=O)c1cc(NS(C)(=O)=O)nc(-c2cnn3ccc(-c4cccs4)nc23)c1
17.3	CCN(CC)[C@@H](C)CNC(=O)c1cc(-c2cnn3ccc(-c4cccs4)nc23)nc(N2CC(F)(F)C2)c1
471	COc1cc(C(=O)N2CC[C@H](N)C2)cc(-c2cnn3ccc(-c4ccccc4)nc23)n1
33.7	NC[C@H]1CCCCN1C(=O)c1cc(Cl)nc(-c2cnn3ccc(-c4ccccc4)nc23)c1
20.5	CCN(CC)[C@@H](C)CNC(=O)c1cc(NC(=O)C(C)C)nc(-c2cnn3ccc(-c4cccs4)nc23)c1
212	CN(C)c1cc(C(=O)N2CC[C@H](N)C2)cc(-c2cnn3ccc(-c4cccs4)nc23)n1
19.9	CCN(CC)[C@@H](C)CNC(=O)c1cc(-c2cnn3ccc(-c4cccs4)nc23)nc(N2CC(OC(F)F)C2)c1
121	CCN(CC)[C@@H](C)CNC(=O)c1cc(-c2cnn3ccc(-c4cccs4)nc23)nc(N2CCn3ccnc3C2)c1
11.2	CCN(CC)[C@@H](C)CNC(=O)c1cc(-c2cnn3ccc(-c4cccs4)nc23)nc(N2CCCS2(=O)=O)c1
519	CCN(CC)[C@@H](C)CNC(=O)c1cc(-c2cnn3ccc(-c4cncnc4)nc23)nc(N2CC(OC)C2)c1
122	COC1CN(c2cc(C(=O)NC[C@H](C)N)cc(-c3cnn4ccc(-c5ccccc5)nc34)n2)C1
9.45	CCOC1CN(c2cc(C(=O)NC[C@H](C)N(CC)CC)cc(-c3cnn4ccc(-c5cccs5)nc34)n2)C1

SMILES	EC50 [nM]
Nc1cc(C(=O)N2C3CCNCC2CC3)cc(-c2cnn3ccc(-c4ccccc4)nc23)n1 (stereo not given)	606
Nc1cc(C(=O)N2C3CCNCC2CC3)cc(-c2cnn3ccc(-c4cccs4)nc23)n1 (stereo not given)	111
